# Test results as given in paper PMC6613765 (Journal of Virology, 2019).
# Counter-ions that a name gives are not always drawn. Like-named read-outs stand apart in the source and are kept apart here.
# Key:
# in vitro = conditions: mouse
# HCoV-NL63 [1] = test: microbe, parasite or virus in culture; conditions: Human coronavirus NL63, LLC-MK2, 72 h, read-out: HCoV-NL63 EC50
# MHV-A59 [2] = test: microbe, parasite or virus in culture; conditions: Murine coronavirus, 72 h, read-out: MHV-A59 EC50
# HCoV-OC43-WT [3] = tested on: HCoV-OC43-WT; design: species or system BALB/c mice
# HCoV-OC43-WT [4] = conditions: for EC50: read-out: HCoV-OC43 EC50
# HCoV-NL63 [5] = conditions: for EC50: read-out: HCoV-NL63 EC50
# MERS-CoV [6] = conditions: for EC50: read-out: MERS-CoV EC50
# MHV-A59 [7] = conditions: for EC50: read-out: MHV-A59 EC50
# [8] = tested on: four CoVs (HCoV-OC43, HCoV-NL63, MERS-CoV, MHV-A59); test: organism not typed; format: cell-based; conditions: read-out: EC50 values against all CoVs
# [9] = tested on: pseudotyped MERS-CoV (HIV-1 backbone, spike protein of MERS-CoV); format: cell-based
# SARS-CoV [10] = conditions: cited from earlier work
# MERS-CoV [11] = conditions: cited from earlier work
# SARS-CoV [12] = conditions: mouse, in vivo; cited from earlier work
# rOC43-ns2Del-Rluc = format: in vivo, BALB/c mice
# MERS-CoV [13] = conditions: read-out: EC50, MERS-CoV; cited from earlier work
# HCoV-229E = conditions: read-out: EC50, HCoV-229E; CoV-infected human primary cells; cited from earlier work
Compound,CC50 (in vitro) [µM],EC50 (HCoV-NL63 [1]) [µM],EC50 (MHV-A59 [2]) [µM],further results
O=C(/C=C/c1ccccc1)c1ccc(O)cc1 [4'-Hydroxychalcone],> 20,7.25,9.75,
C=CCc1ccccc1OCC(O)CNC(C)C (stereo not shown) [Alprenolol],> 20,11.9,14,
CCCCCC[C@H]1C(=O)O[C@H](C)[C@H](NC(=O)c2cccc(NC=O)c2O)C(=O)O[C@@H](C)[C@@H]1OC(=O)CC(C)C [Antimycin A],3.98,6.05,5.42,
COc1cc2c3cc1Oc1c(OC)c(OC)cc4c1[C@@H](Cc1ccc(O)c(c1)Oc1ccc(cc1)C[C@@H]3N(C)CC2)N(C)CC4 [Berbamine],> 20,9.46,10.9,
CN(C)CCN(Cc1ccc(Cl)cc1)c1ccccn1 [Chloropyramine],> 20,14.2,2.42,
CCN(CC)CCCC(C)Nc1ccnc2cc(Cl)ccc12 (stereo not shown) [Chloroquine],> 20,4.89,15.9,"antiviral activity in vivo, positive control (HCoV-OC43-WT [3]; mouse): showed antiviral activity"
C[C@H]1[C@H]2CC[C@H]3[C@@H]4CC=C5C[C@@H](N(C)C)CC[C@]5(C)[C@H]4CC[C@]23CN1C [Conessine],> 20,10.8,11.5,
C[C@@H]1C[C@@H]([C@H](O)CC2CC(=O)NC(=O)C2)C(=O)[C@@H](C)C1 [Cycloheximide],3.19,2.64,5.21,
CNCCCN1c2ccccc2CCc2ccccc21 [Desipramine],> 20,6.68,8.75,
CC(=O)Oc1cc2c(c(C)c1OC(C)=O)CC=C1[C@@]2(C)CC[C@@]2(C)C3C[C@](C)(C(=O)O)CC[C@]3(C)CC[C@]12C (stereo partly shown) [Dihydrocelastryl diacetate],,,,EC50 (HCoV-OC43-WT [4]): 1.71 µM; EC50 (HCoV-NL63 [5]): 0.65 µM; EC50 (MERS-CoV [6]): 10.6 µM; EC50 (MHV-A59 [7]): 4.24 µM; CC50 (BHK-21 cells): > 20 µM; CC50 (LLC-MK2 cells): > 20 µM; CC50 (Vero E6 cells): > 20 µM; CC50 (DBT cells): > 20 µM
O=C(Nc1ccccc1)OCC(CN1CCCCC1)OC(=O)Nc1ccccc1 (stereo not shown) [Diperodon],14.5,4.91,1.98,
COc1cc2nc(N3CCN(C(=O)C4COc5ccccc5O4)CC3)nc(N)c2cc1OC (stereo not shown) [Doxazosin mesylate],> 20,14,14.5,
CC[C@H]1CN2CCc3cc(OC)c(OC)cc3[C@@H]2C[C@@H]1C[C@H]1NCCc2cc(OC)c(OC)cc21 [Emetine],3.51,1.43,0.12,"EC50 [8]: < 5 µM; luciferase activity reduced compared with control [9]: 50 fold; SI (CC50/EC50), MERS-CoV (MERS-CoV [6]): 9.06; CC50 (BHK-21 cells; hamster): 2.69 µM; CC50 (LLC-MK2 cells; rhesus monkey): 3.63 µM"
CCCCCCOc1ccccc1C(N)=O [Exalamide],> 20,17.5,16.4,
CCC(CC)COC(=O)[C@H](C)N[P@](=O)(OC[C@H]1O[C@@](C#N)(c2ccc3c(N)ncnn23)[C@H](O)[C@@H]1O)Oc1ccccc1 [GS-5734],,,,"IC50, SARS-CoV replication (SARS-CoV [10]): submicromolar; IC50, MERS-CoV replication (MERS-CoV [11]): submicromolar; lung viral load (SARS-CoV [12]): significantly reduced the lung viral load"
COc1ccc2c(c1)[nH]c1c(C)nccc12 [Harmine],> 20,13.5,13.8,
CCN(CC)CCNc1ccc(CO)c2sc3ccccc3c(=O)c12 [Hycanthone],4.19,5.76,5.78,

Compound,CC50 (in vitro) [µM],EC50 (HCoV-NL63 [1]) [µM],EC50 (MHV-A59 [2]) [µM],further results
O[C@H]1[C@H]2c3cc4c(cc3CN3CCC(=C[C@@H]1O)[C@H]23)OCO4 [Lycorine],3.51,0.47,0.31,"HCoV-OC43 nucleocapsid protein in mouse brain coronal sections (IHC) (HCoV-OC43-WT [3]; in vivo): present only in the PBS-DMSO-treated group, not in the lycorine-treated group; viral loads in the brain and spinal cord (HCoV-OC43-WT [3]; mouse, in vivo): under the limit of detection; bioluminescence signal in the brain (rOC43-ns2Del-Rluc; 15 mg/kg daily, 2, 3 and 4 days postinoculation): no signal was detected; Rluc activity in PBS-DMSO-treated mice relative to treated mice (rOC43-ns2Del-Rluc; mouse brain, 72 h postinoculation, 15 mg/kg): ~2 × 10^5 fold; SI (CC50/EC50), HCoV-OC43 (HCoV-OC43-WT [4]): 29.13; CC50 (BHK-21 cells; hamster): 4.37 µM; CC50 (LLC-MK2 cells; rhesus monkey): 3.81 µM"
COc1c(C)c2c(c(O)c1C/C=C(\C)CCC(=O)OCCN1CCOCC1)C(=O)OC2 [Mycophenolate mofetil],3.33,0.23,0.27,EC50 [8]: < 5 µM; CC50 (BHK-21 cells; hamster): 3.43 µM; CC50 (LLC-MK2 cells; rhesus monkey): 3.01 µM
COc1c(C)c2c(c(O)c1C/C=C(\C)CCC(=O)O)C(=O)OC2 [Mycophenolic acid],4.18,0.18,0.17,"EC50 [8]: < 5 µM; SI (CC50/EC50), HCoV-NL63 (HCoV-NL63 [5]): 19.11; CC50 (BHK-21 cells; hamster): 3.55 µM; CC50 (LLC-MK2 cells; rhesus monkey): 3.44 µM"
CC[C@H]1/C=C/C=C/C[C@@H](C)[C@H](O)[C@@](C)(O)C(=O)[C@@H](C)[C@H](O)[C@@H](C)C(=O)[C@@H](C)[C@H](O)[C@@H](C)/C=C/C(=O)O[C@@H]2[C@H](C)[C@H](CC1)O[C@]1(CC[C@H](C)[C@H](C[C@@H](C)O)O1)[C@H]2C [Oligomycin],6.78,2.63,6.43,
COc1ccc(Cc2nccc3cc(OC)c(OC)cc23)cc1OC [Papaverine],12.4,7.32,11.5,
Nc1ccc(/N=N/c2ccccc2)c(N)n1 [Phenazopyridine],> 20,2.02,0.77,"EC50 [8]: < 5 µM; SI (CC50/EC50), MHV-A59 (MHV-A59 [7]): > 25.97; CC50 (BHK-21 cells; hamster): > 20 µM; CC50 (LLC-MK2 cells; rhesus monkey): > 20 µM"
CC(=O)[O][Hg][c]1ccccc1 [Phenylmercuric acetate],,,,EC50 (HCoV-OC43-WT [4]): 2.17 µM; EC50 (HCoV-NL63 [5]): 6.79 µM; EC50 (MERS-CoV [6]): 6.44 µM; EC50 (MHV-A59 [7]): 6.81 µM; CC50 (BHK-21 cells): 5.35 µM; CC50 (LLC-MK2 cells): 5.47 µM; CC50 (Vero E6 cells): 5.39 µM; CC50 (DBT cells): 5.97 µM
COC(=O)[C@]1(C)CC[C@]2(C)CC[C@]3(C)C4=CC=C5C(=CC(=O)C(O)=C5C)[C@]4(C)CC[C@@]3(C)[C@@H]2C1 [Pristimerin],> 20,1.63,9.17,
CN(C)CCCN1c2ccccc2Sc2ccccc21 [Promazine],> 20,1.37,0.51,
Cc1cc(/C=C/c2ccc3cc(N(C)C)ccc3[n+]2C)c(C)n1-c1ccccc1 [Pyrvinium pamoate],,3.35,,EC50 [8]: < 5 µM
CC[C@@H](C(=O)[C@@H](C)[C@@H](O)[C@H](C)[C@@H]1O[C@@H]([C@@H](CC)C(=O)O)CC[C@@H]1C)[C@H]1O[C@]2(C=C[C@@H](O)[C@]3(CC[C@@](C)([C@H]4CC[C@](O)(CC)[C@H](C)O4)O3)O2)[C@H](C)C[C@@H]1C [Salinomycin sodium],2.45,5.71,5.16,
COc1ccc2cc1Oc1ccc(cc1)C[C@H]1c3cc(c(OC)cc3CCN1C)Oc1c(OC)c(OC)cc3c1[C@H](C2)N(C)CC3 [Tetrandrine],> 20,2.05,4.81,
Clc1ccccc1CN1CCc2sccc2C1 [Ticlopidine],> 20,15.7,14.3,
CCN(CC)CCOc1ccc2c(c1)C(=O)c1cc(OCCN(CC)CC)ccc1-2 [Tilorone],> 20,6.89,16.1,
CC(C)[C@@H]1NC(=O)[C@H](C)OC(=O)[C@@H](C(C)C)NC(=O)[C@@H](C(C)C)OC(=O)[C@H](C(C)C)NC(=O)[C@H](C)OC(=O)[C@@H](C(C)C)NC(=O)[C@@H](C(C)C)OC(=O)[C@H](C(C)C)NC(=O)[C@H](C)OC(=O)[C@@H](C(C)C)NC(=O)[C@@H](C(C)C)OC1=O [Valinomycin],5.11,1.89,6.78,
COC(=O)[C@H]1[C@@H](O)[C@@]2(O)c3c(OC)cc(O[C@@H]4O[C@@H]([C@H](O)CO)CO[C@H]4OC)cc3O[C@@]2(c2ccc(OC)cc2)[C@@H]1c1ccccc1 [silvestrol],,,,EC50 (MERS-CoV [13]): 0.0013 µM; EC50 (HCoV-229E): 0.003 µM
Monensin sodium,,,,EC50 [8]: < 5 µM; EC50 (HCoV-OC43-WT [4]): 3.81 µM; EC50 (HCoV-NL63 [5]): 1.54 µM; EC50 (MERS-CoV [6]): 3.27 µM; EC50 (MHV-A59 [7]): 0.18 µM
